# In PMC2360206 (British Journal of Cancer, 2006):
# What was measured:
# [1] = Phase I toxicity (NCI CTC v2.0) in patients; assay type: in vivo, human; conditions: for No. with grade 3 & 4 ALT increased / No. with grade 3 & 4 AST increased / No. with grade 3 & 4 Alk Phos increase / No. with grade 3 & 4 Anorexia / No. with grade 3 & 4 Bilirubin increase / No. with grade 3 & 4 CKMB increase / No. with grade 3 & 4 Fatigue / No. with grade 3 & 4 Hyperglycaemia / No. with grade 3 & 4 Hypokalemia / No. with grade 3 & 4 Hyponatraemia / No. with grade 3 & 4 Hypotension / No. with grade 3 & 4 Lymphopenia / No. with grade 3 & 4 Rash / No. with grade 3 & 4 adverse events / No. with grade 3 & 4 γ GT increase: first course; for Patients with derangements in liver biochemistry (γGT and ALP elevations): 7-day treatment period
# From the text: Dose-limiting toxicity (DLT) was defined as drug-related toxicity in the first cycle, including grade 4 neutropenia for 7 days or more, neutropenic fever, platelet count <25 × 10^9 l^−1 and/or non-haematological toxicity⩾grade 3. This definition excluded nausea and vomiting subsequently responding to antiemetic therapy and reversible grade 3 increases in liver transaminases. The maximum tolerated dose (MTD) was defined as a dose below which DLT occurred in more than 30% of the patients. Toxicities were evaluated according to the National Cancer Institute Common Toxicity Criteria, version 2.0.
# (§1) Before commencing treatment, a complete medical history was taken and physical examination was performed. The following pretreatment baseline examinations were performed within 4 weeks of starting treatment: full blood count, including white blood cell differential; reticulocyte count, haptoglobin, prothrombin time and Coombs test; serum biochemistry, including sodium, potassium, urea, creatinine, calcium, phosphorus, creatine kinase and isoenzymes, total protein, albumin, bilirubin (direct and total), alkaline phosphatase (ALP), alanine aminotransferase (ALT), aspartate aminotransferase (AST), γ-glutamyl transferase (γGT), lactate dehydrogenase and uric acid; urinalysis; pregnancy test, electrocardiogram and a chest X-ray. Weekly evaluations included history, physical examination, toxicity assessment according to the CTC criteria version 2.0 and full blood count and serum chemistries. Radiographic assessment of tumour was performed within 3 weeks before the patient starting treatment and after every two cycles, according to standard RECIST methodology. Patients were taken off protocol upon disease progression, unacceptable toxicity, investigator discretion, serious violation of protocol or at their own request, and were followed for 28 days after the last administration of the study drug.
# In addition, more intensive blood chemistry testing was performed on days 1, 3, 5 and 7.
# [2] = tested on: renal perfusion; assay: MAG3 renogram functional renal imaging; assay type: in vivo, human; conditions: one of three patients, 800 mg b.i.d., day 3, reverted to normal by day 14
# Experimental: In an attempt to understand further the pathogenesis of these biochemical toxicities, three patients were studied more intensively. Urinary retinol-binding protein (RBP), a marker of renal tubular damage was measured in conjunction with functional renal imaging (MAG3 renograms) to estimate renal blood flow pretreatment on days 3 and 14. […] This was associated with bilateral increases in renal parenchymal retention on day 3 on MAG3 scans, which reverted to normal by day 14 (see Figure 1). […] There were no consistent changes in urinary RBP in any of these patients (Table 3).
# [3] = tested on: malignant solid tumour; assay: Antitumour activity in patients (RECIST); assay type: in vivo, human; conditions: for Patients with stable disease after course 2: progressed by course 4
# Experimental: as §1
# [4] = tested on: Cdk4; conditions: background statement, no reference given; cited from earlier work
# [5] = tested on: Cdk6; conditions: background statement, no reference given; cited from earlier work
# [6] = tested on: Cdk8; conditions: background statement, no reference given; cited from earlier work
# [7] = set-up: method as in Raynaud et al, 2005; conditions: mouse, single dose 500 mg kg^−1 p.o.; ref Raynaud et al, 2005; cited from earlier work
# [8] = tested on: human tumour xenograft; set-up: method as in Raynaud et al, 2005; conditions: 500 mg kg^−1 p.o. b.i.d., mouse; ref Raynaud et al, 2005; cited from earlier work
# [9] = 28 days treatment in rodents; no reference given; cited from earlier work
# [10] = set-up: method as in Pierga et al, 2003; conditions: for 5 days, twice-daily oral schedule; ref Pierga et al, 2003; cited from earlier work
# [11] = same patient, 800 mg b.i.d., course 2
smiles,measurement,setting,value
CC[C@H](CO)Nc1nc(NCc2ccccc2)c2ncn(C(C)C)c2n1 [Seliciclib],No. with grade 3 & 4 ALT increased,"[1]; 100 mg b.i.d, 3 subjects",0
same,No. with grade 3 & 4 AST increased,"[1]; 100 mg b.i.d, 3 subjects",0
same,No. with grade 3 & 4 Alk Phos increase,"[1]; 100 mg b.i.d, 3 subjects",0
same,No. with grade 3 & 4 Anorexia,"[1]; 100 mg b.i.d, 3 subjects",0
same,No. with grade 3 & 4 Bilirubin increase,"[1]; 100 mg b.i.d, 3 subjects",0
same,No. with grade 3 & 4 CKMB increase,"[1]; 100 mg b.i.d, 3 subjects",0
same,No. with grade 3 & 4 Fatigue,"[1]; 100 mg b.i.d, 3 subjects",0
same,No. with grade 3 & 4 Hyperglycaemia,"[1]; 100 mg b.i.d, 3 subjects",0
same,No. with grade 3 & 4 Hypokalemia,"[1]; 100 mg b.i.d, 3 subjects",0
same,No. with grade 3 & 4 Hyponatraemia,"[1]; 100 mg b.i.d, 3 subjects",0
same,No. with grade 3 & 4 Hypotension,"[1]; 100 mg b.i.d, 3 subjects",0
same,No. with grade 3 & 4 Lymphopenia,"[1]; 100 mg b.i.d, 3 subjects",0
same,No. with grade 3 & 4 Rash,"[1]; 100 mg b.i.d, 3 subjects",0
same,No. with grade 3 & 4 adverse events,"[1]; 100 mg b.i.d, 3 subjects",0
same,No. with grade 3 & 4 γ GT increase,"[1]; 100 mg b.i.d, 3 subjects",0
same,Toxicity at the 100 mg dose level,"[1]; 100 mg b.i.d., three patients",No significant toxicity
same,No. with grade 3 & 4 ALT increased,"[1]; 200 mg b.i.d, 6 subjects",1
same,No. with grade 3 & 4 AST increased,"[1]; 200 mg b.i.d, 6 subjects",1
same,No. with grade 3 & 4 Alk Phos increase,"[1]; 200 mg b.i.d, 6 subjects",1
same,No. with grade 3 & 4 Anorexia,"[1]; 200 mg b.i.d, 6 subjects",0
same,No. with grade 3 & 4 Bilirubin increase,"[1]; 200 mg b.i.d, 6 subjects",1
same,No. with grade 3 & 4 CKMB increase,"[1]; 200 mg b.i.d, 6 subjects",1
same,No. with grade 3 & 4 Fatigue,"[1]; 200 mg b.i.d, 6 subjects",0
same,No. with grade 3 & 4 Hyperglycaemia,"[1]; 200 mg b.i.d, 6 subjects",0
same,No. with grade 3 & 4 Hypokalemia,"[1]; 200 mg b.i.d, 6 subjects",0
same,No. with grade 3 & 4 Hyponatraemia,"[1]; 200 mg b.i.d, 6 subjects",0
same,No. with grade 3 & 4 Hypotension,"[1]; 200 mg b.i.d, 6 subjects",0
same,No. with grade 3 & 4 Lymphopenia,"[1]; 200 mg b.i.d, 6 subjects",0
same,No. with grade 3 & 4 Rash,"[1]; 200 mg b.i.d, 6 subjects",0
same,No. with grade 3 & 4 adverse events,"[1]; 200 mg b.i.d, 6 subjects",2
same,No. with grade 3 & 4 γ GT increase,"[1]; 200 mg b.i.d, 6 subjects",1
same,Patients with derangements in liver biochemistry (γGT and ALP elevations),[1]; 200 mg b.i.d.,4 out of 6
same,No. with grade 3 & 4 ALT increased,"[1]; 800 mg b.i.d, 12 subjects",0
same,No. with grade 3 & 4 AST increased,"[1]; 800 mg b.i.d, 12 subjects",0
same,No. with grade 3 & 4 Alk Phos increase,"[1]; 800 mg b.i.d, 12 subjects",0
same,No. with grade 3 & 4 Anorexia,"[1]; 800 mg b.i.d, 12 subjects",1
same,No. with grade 3 & 4 Bilirubin increase,"[1]; 800 mg b.i.d, 12 subjects",0
same,No. with grade 3 & 4 CKMB increase,"[1]; 800 mg b.i.d, 12 subjects",0
same,No. with grade 3 & 4 Fatigue,"[1]; 800 mg b.i.d, 12 subjects",1
same,No. with grade 3 & 4 Hyperglycaemia,"[1]; 800 mg b.i.d, 12 subjects",1
same,No. with grade 3 & 4 Hypokalemia,"[1]; 800 mg b.i.d, 12 subjects",3
same,No. with grade 3 & 4 Hyponatraemia,"[1]; 800 mg b.i.d, 12 subjects",1
same,No. with grade 3 & 4 Hypotension,"[1]; 800 mg b.i.d, 12 subjects",1
same,No. with grade 3 & 4 Lymphopenia,"[1]; 800 mg b.i.d, 12 subjects",1
same,No. with grade 3 & 4 Rash,"[1]; 800 mg b.i.d, 12 subjects",1
same,No. with grade 3 & 4 adverse events,"[1]; 800 mg b.i.d, 12 subjects",7
same,No. with grade 3 & 4 γ GT increase,"[1]; 800 mg b.i.d, 12 subjects",3
same,Patients with hypokalaemia (<3.0 mmol l^−1),[1]; 800 mg b.i.d.,five of 12
same,Patients with seliciclib-induced hyperglycaemia,[1]; 800 mg b.i.d.,five and five of 12
same,Dose-limiting toxicities,"[1]; 800 mg b.i.d. p.o., 7 days every 21 days","grade 3 fatigue, grade 3 skin rash, grade 3 hyponatraemia and grade 4 hypokalaemia"
same,Patients with derangements in liver biochemistry (γGT and ALP elevations),[1]; 800 mg b.i.d.,10 out of 12
same,Patients with grade 1 hypokalaemia,"[1]; 800 mg b.i.d., 12 patients",two
same,Patients with grade 3 hypokalaemia,"[1]; 800 mg b.i.d., 12 patients",two
same,Patients with grade 4 hypokalaemia,"[1]; 800 mg b.i.d., 12 patients",one
same,Patients who experienced nausea,"[1]; 800 mg dose level, not dose-limiting",11 of the 12
same,Overall haematological toxicity,[1]; all dose levels,mild
same,Patients with seliciclib-related DLTs,[1]; final six patients treated at 800 mg,Four of the final six
same,Serum potassium (lowest level),"[1]; one patient, 800 mg b.i.d., day 7 of course 1",2.2 mmol/L
same,Blood pressure (hypotension),[1]; [11],82/52
same,Serum potassium nadir,[1]; [11],2.5 mmol/L
same,Serum sodium (hyponatraemia),[1]; [11],127 mmol/L
same,Creatinine,"[1]; same patient, 800 mg b.i.d., course 2, normal range <110",130 µmol/L
same,Renal perfusion by MAG3 perfusion indices,[2],reduction in renal perfusion bilaterally
same,Patients with stable disease after course 2,[3]; 100 mg b.i.d.,Two of three
same,Patients with stable disease after course 2,[3]; 200 mg b.i.d.,two of six
same,Patients with stable disease after course 2,[3]; 800 mg b.i.d.,three of 12
same,Objective tumour responses,[3]; all dose levels,No objective tumour responses
same,Patients with disease stabilisation,"[3]; all dose levels, 21 treated patients",eight
same,Duration of disease stabilisation,"[3]; one patient with ovarian cancer, six courses",18 weeks
same,Inhibition of Cdk4,[4],only a weak inhibitor
same,Inhibition of Cdk6,[5],only a weak inhibitor
same,Inhibition of Cdk8,[6],only a weak inhibitor
same,peak seliciclib concentration,[7],approximately 100 μM
same,Effect on growth of a human tumour xenograft,[8],significant growth delay
same,Preclinical toxicology findings,[9],"anaemia, leucocytosis, bone marrow hyperplasia, polydipsia, polyuria and gastric ulceration"
same,Recommended phase II dose,[10],2500 mg per day
